Legend:
Histamine H4 receptor [1] = target: Histamine H4 receptor (Homo sapiens, UniProt Q9H3N8); experiment: Displacement of [3H]histamine from wild type human histamine H4 receptor transfected in HEK293T cells after 1.5 hrs by liquid scintillation counting analysis; assay type: cell-based, HEK-293T
Histamine H4 receptor [2] = target: Histamine H4 receptor (Homo sapiens, UniProt Q9H3N8, E182Q); experiment: Displacement of [3H]-JNJ 7777120 from human histamine H4 receptor E182'5.46Q mutant transfected in HEK293T cells after 1.5 hrs by liquid scintillation counting analysis
Chain of Histamine H4 receptor (Homo sapiens, UniProt Q9H3N8, E182Q) (Q9H3N8 whole entry E182Q): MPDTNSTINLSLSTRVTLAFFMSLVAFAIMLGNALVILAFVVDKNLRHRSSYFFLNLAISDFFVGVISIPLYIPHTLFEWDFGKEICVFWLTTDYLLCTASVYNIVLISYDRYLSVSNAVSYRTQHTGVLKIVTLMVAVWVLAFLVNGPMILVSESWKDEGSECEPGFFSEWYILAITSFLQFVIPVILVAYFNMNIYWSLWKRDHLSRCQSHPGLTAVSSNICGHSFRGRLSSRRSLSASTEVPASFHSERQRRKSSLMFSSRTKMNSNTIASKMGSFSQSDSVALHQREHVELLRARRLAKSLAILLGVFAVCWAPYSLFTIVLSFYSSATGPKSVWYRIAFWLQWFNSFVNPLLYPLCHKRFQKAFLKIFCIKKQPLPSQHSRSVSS

Histamine H4 receptor [3] = target: Histamine H4 receptor (Homo sapiens, UniProt Q9H3N8, L175V); experiment: Displacement of [3H]histamine from human histamine H4 receptor L175'5.39V mutant transfected in HEK293T cells after 1.5 hrs by liquid scintillation counting analysis; assay type: cell-based, HEK-293T
Chain of Histamine H4 receptor (Homo sapiens, UniProt Q9H3N8, L175V) (Q9H3N8 whole entry L175V): as the sequence (Q9H3N8 whole entry E182Q) above, with L175V, Q182E counted along it

Row | SMILES | Ki (Histamine H4 receptor [1]) | Ki (Histamine H4 receptor [2]) | Ki (Histamine H4 receptor [3])
1 | COc1ccc(-c2cc(N3CCN(C)CC3)nc(N)n2)cc1 | 15.8 nM | – | –
2 | CN1CCN(c2cc(-c3ccc([N+](=O)[O-])cc3)nc(N)n2)CC1 | 7.94 nM | – | –
3 | CN1CCN(c2cc(-c3ccccc3)nc(N)n2)CC1 | – | 63.1 nM | 20 nM
4 | COc1ccc2[nH]c(C(=O)N3CCN(C)CC3)cc2c1 | 5010 nM | – | –
5 | CN1CCN(C(=O)c2cc3cc([N+](=O)[O-])ccc3[nH]2)CC1 | 100 nM | – | –

Now from value to molecule:

Row | Ki (Histamine H4 receptor [1]) | Ki (Histamine H4 receptor [2]) | Ki (Histamine H4 receptor [3]) | SMILES
6 | 5.01 nM | – | – | CN1CCN(c2cc(-c3ccc(N)cc3)nc(N)n2)CC1
7 | 2 nM | 200 nM | 63.1 nM | CN1CCN(c2cc(-c3ccc(Cl)cc3)nc(N)n2)CC1
